“Also recorded” adds a separate entry of the source.

For one experiment, the target named is protein kinase. The experiment can be described thus: HTS ATP-utilizing enzyme assay, off-chip mobility-shift format (Caliper HTS 250).
Conditions: not given
Type of experiment: biochemical, human. The method, boiled down: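 Single-point screen at 10 μM compound in HEPES pH 7.5 buffer with Triton X-100 and BSA, 2.5 h at 20–22 °C. Substrate-to-phosphopeptide ratio measured by off-chip microfluidic mobility shift; EDTA wells as 100% and DMSO wells as 0% control, hits called at three-sigma limits.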
Consider `Cn1c(SCC(=O)NCc2ccc3c(c2)OCO3)nnc1-c1cc2ccccc2cc1O`, for which the Kinase entry is “CSK”.

Staying with this experiment, now noted: kinase(s) for which the compound exhibits protein kinase inhibitory activity; test compound 10 μM; active = greater than three-sigma from the mean activity of inactive compounds.
`CC(C)OC(=O)CSc1nnc(-c2cccnc2)n1Cc1ccco1`: the Kinase entry is given as “AKT1”. Consider `COc1ccc(NCc2nnc(SCC(=O)Nc3ccccc3C(F)(F)F)n2-c2ccccc2)cc1`, for which the Kinase entry is on record as “PDGFRR-α”. With `Cn1c(SCC(=O)Nc2cccc(C(F)(F)F)c2)nnc1-c1ccc(O)cc1`, the Kinase result is “GSK3-β and SRC and GSK3-α”. Consider `COc1ccc(-c2nnc(SCC(=O)NCC3CCCCC3)n2-c2ccccc2)cc1`, for which the Kinase result is “AKT3”.

On to `CCn1c(SCC(=O)Nc2nccs2)nnc1C1COc2ccccc2O1` (stereo not drawn), for which the Kinase result is given as “GSK3-α; also recorded: GSK3-β”. Same read-out and setting: as for `COc1ccc(-n2c(S)nnc2COc2ccc3ccccc3c2)cc1`, the entry is “GSK3-α and CDK1”; as for `CC1CCN(C(=O)CSc2nnc(Cc3ccccc3)n2-c2cccc(Cl)c2)CC1`, “LCK”.

Turning to `COc1ccc(-c2nnc(SCC(=O)N3CCOCC3)n2-c2ccccc2)cc1OC`, the Kinase entry is listed as “AKT1”. For `Oc1cc2ccccc2cc1-c1nnc(S)n1Cc1ccco1` [3-(4-(furan-2-ylmethyl)-5-mercapto-4H-1,2,4-triazol-3-yl)naphthalen-2-ol], the Kinase result was “AURORA-A”.

Take `CCC(=O)Nc1ccc(NC(=O)CSc2nnc(-c3ccc(O)cc3)n2CC)cc1C`: the Kinase result was “GSK3-α”. For the compound `CCc1nnc(NC(=O)CSc2nnc(-c3ccc(O)cc3)n2-c2cccc(Cl)c2)s1`, the Kinase result is “GSK3-β; also recorded: GSK3-α”. Still for that read-out and setting: the entry for `O=C(CSc1nnc(-c2ccc(O)cc2)n1Cc1ccccc1)N1CCCCC1` is “GSK3-α; also recorded: GSK3-β”; for `Cc1cccc(-c2nnc(SCC(=O)NCc3ccccc3)n2C)c1` [N-benzyl-2-(4-methyl-5-m-tolyl-4H-1,2,4-triazol-3-ylthio)acetamide] it is “MAPKAPK-2 and FYN”.

Consider `Cc1cccc(NC(=O)CSc2nnc(-c3ccc(O)cc3)n2-c2ccccc2)c1C`, for which the Kinase result is recorded as “MSK2”. Take `Cn1c(SCC(=O)Nc2nc3c(s2)CCCC3)nnc1C1CC1`: the Kinase entry is recorded as “CDK2-cyclinE”.

Consider `CNC(=O)CSc1nnc(-c2cc3ccccc3cc2O)n1C`, for which the Kinase entry is “FYN”. Consider `COc1ccc(C(=O)CSc2nnc(CNc3ccc(C)cc3)n2-c2ccccc2)cc1`, for which the Kinase entry was “CHEK2 and SYK”. For `O=C(O)CSc1nnc(-c2cccnc2)n1-c1ccc(F)cc1` [2-(4-(4-fluorophenyl)-5-(pyridin-3-yl)-4H-1,2,4-triazol-3-ylthio)acetic acid], the Kinase entry was “AURORA-A”.

Regarding `CCOc1ccc(NCc2nnc(SC(C)C(=O)N(c3ccccc3)c3ccccc3)n2-c2ccc(OC)cc2)cc1` (stereo not drawn), the Kinase entry is listed as “FYN”. As for `O=C(CSc1nnc(COc2cccc3cccnc23)n1-c1ccccc1)Nc1ccccc1`, the Kinase result is “SGK1 and CDK1”. The same measure, in the same setting: as for `Cn1c(SCC(=O)N2CCOCC2)nnc1-c1ccco1` [2-(5-(furan-2-yl)-4-methyl-4H-1,2,4-triazol-3-ylthio)-1-morpholinoethanone], the entry is “FYN”; as for `COc1ccc(-n2c(COc3ccc4ccccc4c3)nnc2SCC(=O)O)cc1`, “AURORA-A”; as for `NC(=O)CSc1nnc(-c2ccc(O)cc2)n1Cc1ccco1`, “GSK3-β; also recorded: GSK3-α”.

For the compound `COCCn1c(SCC(=O)Nc2cccc(O)c2)nnc1-c1ccncc1`, the Kinase entry is listed as “AKT1”. The same measure, in the same setting: as for `O=C(CSc1nnc(-c2ccc(O)cc2)n1Cc1ccco1)N1c2ccccc2Sc2ccccc21`, the entry is “GSK3-β and GSK3-α and MSK2”; as for `N#CCSc1nnc(C2CCCCC2)n1-c1ccccc1` [2-(5-cyclohexyl-4-phenyl-4H-1,2,4-triazol-3-ylthio)acetonitrile], “CHEK2”; as for `Cc1cccc(-c2nnc(SCC(=O)Nc3cccc(C(F)(F)F)c3)n2C)c1`, “CDK2-cyclinE”. On the same count and under the same terms, the entry for `COc1ccc(-n2c(CNc3ccccc3Cl)nnc2SCC(=O)Nc2cccc(C(C)=O)c2)cc1` is “CHEK2”; for `NC(=O)c1c(NC(=O)CSc2nnc(-c3ccccc3)n2Cc2ccco2)sc2c1CCC2` it is “GSK3-α and GSK3-β and PAK2”.

Consider `O=C(CSc1nnc(-c2ccc(O)cc2)n1Cc1ccccc1)c1ccccc1`, for which the Kinase entry is “GSK3-α”. Take `CC(=O)c1cccc(NC(=O)CSc2nnc(-c3ccc(O)cc3)n2C)c1`: the Kinase result was “GSK3-β; also recorded: GSK3-α; also recorded: CHEK2”. As for `Cc1ccc(-n2c(COc3cccc4ccccc34)nnc2SC(C)C(=O)O)cc1` (stereo not drawn), the Kinase entry is “AKT1”. For `Cc1ccc(-n2c(SC(C)C(=O)O)nnc2-c2cccnc2)cc1` (stereo not drawn) [2-(5-(pyridin-3-yl)-4-p-tolyl-4H-1,2,4-triazol-3-ylthio)propanoic acid], the Kinase entry is given as “AURORA-A”. For the compound `CCOc1ccc(NCc2nnc(S)n2-c2ccc(C)cc2)cc1` [5-((4-ethoxyphenylamino)methyl)-4-p-tolyl-4H-1,2,4-triazole-3-thiol], the Kinase entry is “AURORA-A”. `COc1ccc2nc(NC(=O)CSc3nnc(-c4ccc(O)cc4)n3CC3CCCO3)sc2c1` (stereo not drawn): the Kinase entry is “GSK3-β; also recorded: PDGFRR-α; also recorded: GSK3-α”. Turning to `CCOc1ccc2nc(NC(=O)CSc3nnc(-c4ccncc4)n3Cc3ccco3)sc2c1`, the Kinase entry was “GSK3-α and AKT1”. For the compound `Cc1ccc(-n2c(S)nnc2CCc2nc3ccccc3[nH]2)cc1` [5-(2-(1H-benzo[d]imidazol-2-yl)ethyl)-4-p-tolyl-4H-1,2,4-triazole-3-thiol], the Kinase result is given as “GSK3-α; also recorded: GSK3-β”. Still for that read-out and setting: the entry for `CCOC(=O)c1sc(NC(=O)CSc2nnc(Cn3nnc4ccccc43)n2C)nc1C` is “GSK3-β”.

Staying with this experiment, now noted: test compound 10 μM; active = activity greater than three-sigma from the mean of the predominately inactive population for that enzyme.
Consider `CCCCSc1nnc(-c2ccc([N+](=O)[O-])cc2)[nH]1` [3-(butylthio)-5-(4-nitrophenyl)-4H-1,2,4-triazole], for which the “protein kinase against which the compound exhibits inhibitory activity (Table 3)” value was “AURORA-A; also recorded: GSK3-α”. Turning to `OC(CSc1nnc(-c2cccc(C(F)(F)F)c2)[nH]1)C(F)(F)F` (stereo not drawn), the “protein kinase against which the compound exhibits inhibitory activity (Table 3)” value is recorded as “AURORA-A; also recorded: FLT-3; also recorded: GSK3-β”. On the same count and under the same terms, as for `Clc1ccccc1CSc1nncn1-c1cccnc1` [3-(3-(2-chlorobenzylthio)-4H-1,2,4-triazol-4-yl)pyridine], the entry is “PDGFRR-α”; as for `CCCN(CCC)C(=O)CSc1nnc(-c2ccccc2O)n1-c1ccccc1OC`, “KIT and AURORA-A and PKA”.

With `CCn1c(SCc2ccc(C(C)(C)C)cc2)nnc1-c1cccnc1` [3-(5-(4-tert-butylbenzylthio)-4-ethyl-4H-1,2,4-triazol-3-yl)pyridine], the “protein kinase against which the compound exhibits inhibitory activity (Table 3)” value is “MAPKAPK-2”. For the compound `FC(F)(F)Oc1ccc(-c2nnc(SCc3ccncc3)[nH]2)cc1` [4-((5-(4-(trifluoromethoxy)phenyl)-4H-1,2,4-triazol-3-ylthio)methyl)pyridine], the “protein kinase against which the compound exhibits inhibitory activity (Table 3)” value is given as “FLT-3; also recorded: c-TAK1; also recorded: GSK3-β”. On to `CCOc1ccc(NCc2nnc(SCCN3CCCCC3)n2-c2ccccc2)cc1`, for which the “protein kinase against which the compound exhibits inhibitory activity (Table 3)” value is “PDGFRR-α and FYN”. `OC(CSc1nnc(-c2cccs2)[nH]1)C(F)(F)F` (stereo not drawn) [1,1,1-trifluoro-3-(5-(thiophen-2-yl)-4H-1,2,4-triazol-3-ylthio)propan-2-ol]: the “protein kinase against which the compound exhibits inhibitory activity (Table 3)” value is listed as “AURORA-A; also recorded: DYRK2”.

Turning to `OCCSc1nnc(-c2ccc(Cl)c(Cl)c2)[nH]1` [2-(5-(3,4-dichlorophenyl)-4H-1,2,4-triazol-3-ylthio)ethanol], the “protein kinase against which the compound exhibits inhibitory activity (Table 3)” value is given as “AURORA-A; also recorded: FLT-3; also recorded: CHEK2”. Same read-out and setting: as for `Cc1cc(C)nc(SCc2nnc(SCC(=O)NNC(=O)c3ccccc3O)n2-c2ccccc2)n1`, the entry is “FYN and SRC and HCK”; as for `Cc1nnc(SCc2ccccc2)n1Cc1ccco1` [3-(benzylthio)-4-(furan-2-ylmethyl)-5-methyl-4H-1,2,4-triazole], “GSK3-α”. With `COc1ccc(-c2nnc(SCc3ccccc3)n2-c2ccccc2)cc1` [3-(benzylthio)-5-(4-methoxyphenyl)-4-phenyl-4H-1,2,4-triazole], the “protein kinase against which the compound exhibits inhibitory activity (Table 3)” value was “INSR and SYK and PAK2”. The same measure, in the same setting: the entry for `COc1ccc(-c2nnc(SCc3nnc(-c4ccccc4)o3)n2C)cc1OC` is “GSK3-α; also recorded: CHEK2”; for `COCCNC(=O)CSc1nnc(-c2ccccc2O)n1-c1ccccc1OC` it is “KIT”; for `CCn1c(COc2cccc3ccccc23)nnc1SCCC(=O)O` it is “AURORA-A”. Regarding `COCCSc1nnc(-c2ccc(OC)cc2)n1-c1ccccc1` [3-(2-methoxyethylthio)-5-(4-methoxyphenyl)-4-phenyl-4H-1,2,4-triazole], the “protein kinase against which the compound exhibits inhibitory activity (Table 3)” value was “SYK and INSR and PRAK”. As to `OC(CSc1nnc(-c2ccc(Cl)c(Cl)c2)[nH]1)C(F)(F)F` (stereo not drawn), the “protein kinase against which the compound exhibits inhibitory activity (Table 3)” value is on record as “AURORA-A; also recorded: FLT-3; also recorded: GSK3-β”. In the case of `N#Cc1ccccc1CSc1nnc(-c2ccccc2)[nH]1` [2-((5-phenyl-4H-1,2,4-triazol-3-ylthio)methyl)benzonitrile], the “protein kinase against which the compound exhibits inhibitory activity (Table 3)” value is “AURORA-A; also recorded: CHEK2; also recorded: GSK3-β”. Still for that read-out and setting: the entry for `Clc1ccc(Cn2c(CCC3CCCC3)nnc2SCc2ccccc2)cc1Cl` is “GSK3-β; also recorded: AURORA-A; also recorded: c-TAK1”. Turning to `CCn1c(SCCN2CCCCC2)nnc1-c1ccc([N+](=O)[O-])cc1` [1-(2-(4-ethyl-5-(4-nitrophenyl)-4H-1,2,4-triazol-3-ylthio)ethyl)piperidine], the “protein kinase against which the compound exhibits inhibitory activity (Table 3)” value was “PDGFRR-α”. Same read-out and setting: as for `CC(C)=CCSc1nnc(C)n1Cc1ccco1` [4-(furan-2-ylmethyl)-3-methyl-5-(3-methylbut-2-enylthio)-4H-1,2,4-triazole], the entry is “GSK3-β; also recorded: GSK3-α”.
